Test results reported in patent US11884675B2, “Heterocyclic compounds as triggering receptor expressed on myeloid cells 2 agonists and methods of use” (AMGEN INC., priority 2020, dated 2024).

The compounds below were run against hTREM2 (Homo sapiens, UniProt Q9NZC2) (assay: TREM2 activity by cellular Syk phosphorylation (AlphaScreen/AlphaLISA) in TREM2/DAP12-HEK cells, used for Examples 1-305). Conditions: HEK293 Cells.
Format: cell-based
Set-up: expressed in transfected cells
How it was run: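 Phospho-Syk (Tyr525/526) over total Syk quantified by AlphaScreen in lysates of cloned TREM2/DAP12-overexpressing HEK293 cells after 45 min compound treatment at room temperature, 1% final DMSO. Values expressed relative to 100 nM anti-TREM2 antibody (positive) and isotype IgG (negative) controls; curves fitted with 4-parameter logistic model.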

Sequence of hTREM2 (Q9NZC2 19-230): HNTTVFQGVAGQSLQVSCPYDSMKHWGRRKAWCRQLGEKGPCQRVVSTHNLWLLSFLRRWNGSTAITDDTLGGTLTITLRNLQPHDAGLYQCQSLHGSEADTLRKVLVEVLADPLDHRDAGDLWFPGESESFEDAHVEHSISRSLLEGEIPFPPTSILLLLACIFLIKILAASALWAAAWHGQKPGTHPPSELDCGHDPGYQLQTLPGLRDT
Sequence of hTREM2 (O43914 22-113 partner): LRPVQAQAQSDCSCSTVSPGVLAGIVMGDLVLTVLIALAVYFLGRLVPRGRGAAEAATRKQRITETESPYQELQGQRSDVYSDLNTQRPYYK

SMILES	EC50 [nM]	hTREM2 Emax
Cc1cnc2c(-c3ccc(Cl)cc3F)nc([C@H]3CCO[C@H](c4cnn(C)c4)C3)cc2n1 [Example 246, 5-(4-chloro-2-fluorophenyl)-2-methyl-7-((2S,4S)-2-(1-methyl-1H-pyrazol-4-yl)tetrahydro-2H-pyran-4-yl)pyrido[3,4-b] pyrazine]	3000 to 100000	+++ (Emax>150 and ≤250)
Cc1cc([C@@H]2CN(c3nc(-c4ccc(Cl)cc4F)c4ccc(C)nc4n3)CCO2)cnn1 [Example 259, (R)-4-(4-(4-chloro-2-fluorophenyl)-7-methylpyrido[2,3-d]pyrimidin-2-yl)-2-(6-methylpyridazin-4-yl)morpholine]	≤ 50	++++ (Emax>250)
Cc1cc2c(-c3ccc(Cl)cc3F)nc([C@H]3C[C@@H](C)O[C@@H](c4cnn(C)c4)C3)nc2nc1C (single isomer, unassigned) [Example 229]	≤ 50	+++ (Emax>150 and ≤250)
Cc1cc([C@@H]2C[C@H](c3nc(-c4ccc(Cl)cc4F)c4ncc(C)nc4n3)CCO2)ccn1 (single isomer, unassigned) [Example 172]	50 to 500	++++ (Emax>250)
Cc1nc2nc(N3CCO[C@@H](c4cnn(C)c4)C3)nc(C3CC(F)(F)C3)c2nc1C [Example 146, 4-(3,3-difluorocyclobutyl)-6,7-dimethyl-2-((2S)-2-(1-methyl-1H-pyrazol-4-yl)-4-morpholinyl) pteridine]	500 to 3000	++ (Emax>100 and ≤150)
C[C@H]1CN(c2cc3c(c(-c4ccc(Cl)cc4F)n2)CN(C)C3=O)CCO1 [Example 118, 4-(4-chloro-2-fluorophenyl)-2-methyl-6-((2S)-2-methyl-4-morpholinyl)-2,3-dihydro-1H-pyrrolo[3,4-c]pyridin-1-one]	500 to 3000	+ (Emax>45 and ≤100)
COc1cc([C@H]2CN(c3cc4nc(C)cnc4c(-c4ccc(Cl)cc4F)n3)CCO2)ccn1 [Example 78, 5-(4-chloro-2-fluorophenyl)-7-((2S)-2-(2-methoxy-4-pyridinyl)-4-morpholinyl)-2-methylpyrido[3,4-b]pyrazine]	50 to 500	+++ (Emax>150 and ≤250)
Cc1cc([C@H]2C[C@H](c3nc(-c4ccc(Cl)cc4F)c4ccc(C)nc4n3)CCO2)ccn1 (single isomer, unassigned) [Example 219]	50 to 500	++++ (Emax>250)
Cc1cc([C@H]2C[C@H](c3nc(-c4ccc(Cl)cc4F)c4nc(C)c(C)nc4n3)CCO2)ccn1 [Example 273, 4-(4-chloro-2-fluorophenyl)-6,7-dimethyl-2-((2R,4R)-2-(2-methylpyridin-4-yl)tetrahydro-2H-pyran-4-yl)pteridine]	≤ 50	+++ (Emax>150 and ≤250)
Cc1nc2nc([C@H]3C[C@@H](C)O[C@@H](c4cnn(C)c4)C3)nc(-c3ccc(Cl)cc3F)c2nc1C (single isomer, unassigned) [Example 216]	≤ 50	+++ (Emax>150 and ≤250)
Cc1cnc2c(-c3ccc(Cl)cc3F)nc([C@@H]3CCO[C@H](c4cnc(C)nc4)C3)nc2n1 (single isomer, unassigned) [Example 174]	50 to 500	+++ (Emax>150 and ≤250)
Cc1cc([C@@H]2CN(c3nc(-c4ccc(Cl)cc4F)c4ccc(C)nc4n3)CCO2)cnn1 (single isomer, unassigned) [Example 87]	50 to 500	++++ (Emax>250)
Cc1cc([C@H]2C[C@@H](c3nc(-c4ccc(Cl)cc4F)c4nc(C)c(C)nc4n3)CCO2)ccn1 (single isomer, unassigned) [Example 207]	≤ 50	+++ (Emax>150 and ≤250)
Cc1cc2c(-c3ccc(Cl)cc3F)nc([C@H]3CCO[C@@H](c4cnn(C)c4)C3)nc2nc1C (single isomer, unassigned) [Example 224]	≤ 50	+++ (Emax>150 and ≤250)
Cc1cc2c(-c3ccc(F)cc3F)nc([C@H]3CCO[C@@H](c4cnn(C)c4)C3)nc2nc1C (single isomer, unassigned) [Example 201]	≤ 50	+++ (Emax>150 and ≤250)

Now from value to compound:

EC50 [nM]	hTREM2 Emax	SMILES
≤ 50	+++ (Emax>150 and ≤250)	Cc1ccc(-c2nc([C@H]3CCO[C@@H](c4cnn(C)c4)C3)cc3nc(C)c(C)nc23)c(F)c1 (single isomer, unassigned) [Example 196]
≤ 50	++++ (Emax>250)	Cc1cc([C@H]2CN(c3nc(-c4ccc(Cl)cc4F)c4nc(C)c(C)nc4n3)CCO2)ccn1 [Example 23, 4-(4-chloro-2-fluorophenyl)-6,7-dimethyl-2-((2S)-2-(2-methyl-4-pyridinyl)-4-morpholinyl)pteridine]
≤ 50	++++ (Emax>250)	Cc1cc([C@H]2CN(c3nc(-c4ccc(F)cc4F)c4nc(C)c(C)nc4n3)CCO2)ccn1 [Example 33, 4-(2,4-difluorophenyl)-6,7-dimethyl-2-((2S)-2-(2-methyl-4-pyridinyl)-4-morpholinyl)pteridine]
500 to 3000	+ (Emax>45 and ≤100)	Cc1nc2nc(N3CCO[C@@H](c4cnn(C)c4)C3)nc(C3=CCCC3)c2nc1C [Example 128, 4-(1-cyclopenten-1-yl)-6,7-dimethyl-2-((2S)-2-(1-methyl-1H-pyrazol-4-yl)-4-morpholinyl)pteridine]
500 to 3000	+ (Emax>45 and ≤100)	Cc1nc2nc(N3CCO[C@@H](c4cnn(C)c4)C3)nc(N3CCC[C@@H](F)C3)c2nc1C (single isomer, unassigned) [Example 69]
500 to 3000	++ (Emax>100 and ≤150)	Cc1nc2nc(N3CCO[C@@H](c4cnn(C)c4)C3)nc(N3C[C@@H]4[C@H](C3)C4(F)F)c2nc1C [Example 27, 4-((1R,5S)-6,6-difluoro-3-azabicyclo[3.1.0]hexan-3-yl)-6,7-dimethyl-2-((2S)-2-(1-methyl-1H-pyrazol-4-yl)-4-morpholinyl)pteridine]
50 to 500	++ (Emax>100 and ≤150)	Cc1ccc2c(n1)nc(N1CCO[C@@H](c3cnn(C4CC4)c3)C1)nc2[C@H]1CC[C@@H](C(F)(F)F)CC1 [Example 144, 2-((2S)-2-(1-cyclopropyl-1H-pyrazol-4-yl)-4-morpholinyl)-7-methyl-4-(cis-4-(trifluoromethyl)cyclohexyl)pyrido [2,3-d]pyrimidine]
500 to 3000	+ (Emax>45 and ≤100)	Cc1nc2nc(N3CCO[C@@H](c4cnn(C)c4)C3)nc(N3CCC[C@H](F)C3)c2nc1C (single isomer, unassigned) [Example 70]
3000 to 100000	++++ (Emax>250)	Cc1nc2cc([C@@H]3CCO[C@@H](c4cnn(C)c4)C3)nc(-c3ccc(Cl)cc3F)c2nc1C [Example 245, 5-(4-chloro-2-fluorophenyl)-2,3-dimethyl-7-((2R,4R)-2-(1-methyl-1H-pyrazol-4-yl)tetrahydro-2H-pyran-4-yl)pyrido[3,4-b]pyrazine]
500 to 3000	+ (Emax>45 and ≤100)	Cc1cc2c(OC[C@H]3CC3(C)C)nc(N3CCO[C@@H](c4cnn(C)c4)C3)nc2nc1C [Example 111, 4-(((1S)-2,2-dimethylcyclopropyl)methoxy)-6,7-dimethyl-2-((2S)-2-(1-methyl-1H-pyrazol-4-yl)-4-morpholinyl)pyrido[2,3-d]pyrimidine]
≤ 50	+++ (Emax>150 and ≤250)	Cc1nc2nc([C@@H]3CCO[C@H](c4cnn(C)c4)C3)nc(-c3ccc(Cl)cc3F)c2nc1C [Example 242, 4-(4-chloro-2-fluorophenyl)-6,7-dimethyl-2-((2S,4R)-2-(1-methyl-1H-pyrazol-4-yl)tetrahydro-2H-pyran-4-yl)pteridine]
50 to 500	+ (Emax>45 and ≤100)	Cc1nc2nc(N3CCO[C@@H](c4cnn(C)c4)C3)nc(CCC(F)(F)F)c2nc1C [Example 40, 6,7-dimethyl-2-((2S)-2-(1-methyl-1H-pyrazol-4-yl)-4-morpholinyl)-4-(3,3,3-trifluoropropyl)pteridine]
≤ 50	+++ (Emax>150 and ≤250)	Cc1cc([C@H]2CN(c3nc4nc(C)c(C)cc4c([C@H]4C[C@H](C(F)(F)F)C4)n3)CCO2)cnn1 (single isomer, unassigned) [Example 114]
50 to 500	+++ (Emax>150 and ≤250)	Cc1cnc2c(-c3ccc(F)cc3F)nc(N3CCO[C@@H](c4cnn(C)c4)C3)nc2n1 [Example 6, 4-(2,4-difluorophenyl)-7-methyl-2-((2S)-2-(1-methyl-1H-pyrazol-4-yl)-4-morpholinyl)pteridine]
≤ 50	+++ (Emax>150 and ≤250)	Cc1nc2nc(N3CCO[C@@H](c4cnn(C)c4)C3)nc(-c3ccc(F)cc3F)c2nc1C [Example 31, 4-(2,4-difluorophenyl)-6,7-dimethyl-2-((2S)-2-(1-methyl-1H-pyrazol-4-yl)-4-morpholinyl)pteridine]
50 to 500	++ (Emax>100 and ≤150)	Cc1ccc2c(C34CC(C(F)(F)F)(C3)C4)nc(N3CCO[C@@H](c4cnn(C)c4)C3)nc2n1 [Example 100, 7-methyl-2-((2S)-2-(1-methyl-1H-pyrazol-4-yl)-4-morpholinyl)-4-(3-(trifluoromethyl)bicyclo[1.1.1]pentan-1-yl)pyrido[2,3-d]pyrimidine]
50 to 500	+++ (Emax>150 and ≤250)	Cc1cnc2c(-c3ccc(Cl)cc3F)cc(N3CCO[C@@H](c4cnn(C)c4)C3)nc2n1 [Example 159, 8-(4-chloro-2-fluorophenyl)-3-methyl-6-((2S)-2-(1-methyl-1H-pyrazol-4-yl)-4-morpholinyl)pyrido [2,3-b]pyrazine]
